{
  "source": "patent US20020037829A1",
  "about": "“Use of DPPIV inhibitors as diuretic and anti-hypertensive agents” (priority 2000, published 2002)",
  "format_in_all_cases": "cell-based, opossum",
  "key": {"Cl-formate exchange": {"system": "Cl-formate exchange", "experiment": "Cl- gradient-stimulated, DIDS-sensitive 14C-formate uptake (Cl-formate exchange) in OKP cells", "conditions": "Diprotin A", "method": "(§1) The concentration dependence for Diprotin A inhibition of DPPIV activity was first evaluated. […] Diprotin A inhibited EIPA-sensitive Na/H exchange activity by 36.7±5.3%. To test the specificity of this inhibition, activity of another brush border transport process, Cl^−-formate exchange, measured as Cl^− gradient-stimulated, DIDS-sensitive uptake of 14C-formate was assayed."}, "DPPIV": {"system": "DPPIV", "experiment": "Colorimetric DPPIV enzyme assay with glycylproline p-nitroanilide tosylate as substrate in OKP cells", "conditions": "1 mM Diprotin A", "method": "as §1"}, "NHE3": {"system": "NHE3", "experiment": "22Na uptake assay of EIPA-sensitive Na/H exchange (NHE3) activity in OKP cells", "conditions": "1 mM Diprotin A, 20 min pre-incubation in NH3/NH4+ buffer pH 7.4", "excerpt": "As an initial approach to examine the physiological role of the association of DPPIV with NHE3, Diprotin A, a specific competitive inhibitor that binds to the active site of DPPIV, affects NHE3 activity in OKP cells was studied. OKP is a line of opossum proximal tubule cells that has transport properties very similar to the native proximal tubule and is therefore commonly used as an in vitro model for the mammalian proximal tubule.\nas §1"}},
  "data": [
    {"substance": "Ile-Pro-Ile [Diprotin A]", "values": [
      {"measurement": "effect on Cl-formate exchange activity", "setting": "Cl-formate exchange", "result": "no significant effect"},
      {"measurement": "inhibition of DPPIV activity in OKP cells", "setting": "DPPIV", "result": "completely inhibited"},
      {"measurement": "inhibition of EIPA-sensitive Na/H exchange activity", "setting": "NHE3", "result": "36.7±5.3", "unit": "%"}
    ]}
  ]
}
